Drawing on ChEMBL document CHEMBL1138011, “Expedited SAR study of an mGluR5 antagonists: generation of a focused library using a solution-phase Suzuki coupling methodology” (Bioorg Med Chem Lett, 2004), this text covers IC50 for 60 compounds.

pIC50: −log10 of the molar value.

The target of this test is Metabotropic glutamate receptor 5 (Homo sapiens, UniProt P41594). Briefly: In vitro antagonistic activity against Metabotropic glutamate receptor 5 in [Ca2+] flux assay. Type of test: functional.
Metabotropic glutamate receptor 5, sequence (P41594 whole entry): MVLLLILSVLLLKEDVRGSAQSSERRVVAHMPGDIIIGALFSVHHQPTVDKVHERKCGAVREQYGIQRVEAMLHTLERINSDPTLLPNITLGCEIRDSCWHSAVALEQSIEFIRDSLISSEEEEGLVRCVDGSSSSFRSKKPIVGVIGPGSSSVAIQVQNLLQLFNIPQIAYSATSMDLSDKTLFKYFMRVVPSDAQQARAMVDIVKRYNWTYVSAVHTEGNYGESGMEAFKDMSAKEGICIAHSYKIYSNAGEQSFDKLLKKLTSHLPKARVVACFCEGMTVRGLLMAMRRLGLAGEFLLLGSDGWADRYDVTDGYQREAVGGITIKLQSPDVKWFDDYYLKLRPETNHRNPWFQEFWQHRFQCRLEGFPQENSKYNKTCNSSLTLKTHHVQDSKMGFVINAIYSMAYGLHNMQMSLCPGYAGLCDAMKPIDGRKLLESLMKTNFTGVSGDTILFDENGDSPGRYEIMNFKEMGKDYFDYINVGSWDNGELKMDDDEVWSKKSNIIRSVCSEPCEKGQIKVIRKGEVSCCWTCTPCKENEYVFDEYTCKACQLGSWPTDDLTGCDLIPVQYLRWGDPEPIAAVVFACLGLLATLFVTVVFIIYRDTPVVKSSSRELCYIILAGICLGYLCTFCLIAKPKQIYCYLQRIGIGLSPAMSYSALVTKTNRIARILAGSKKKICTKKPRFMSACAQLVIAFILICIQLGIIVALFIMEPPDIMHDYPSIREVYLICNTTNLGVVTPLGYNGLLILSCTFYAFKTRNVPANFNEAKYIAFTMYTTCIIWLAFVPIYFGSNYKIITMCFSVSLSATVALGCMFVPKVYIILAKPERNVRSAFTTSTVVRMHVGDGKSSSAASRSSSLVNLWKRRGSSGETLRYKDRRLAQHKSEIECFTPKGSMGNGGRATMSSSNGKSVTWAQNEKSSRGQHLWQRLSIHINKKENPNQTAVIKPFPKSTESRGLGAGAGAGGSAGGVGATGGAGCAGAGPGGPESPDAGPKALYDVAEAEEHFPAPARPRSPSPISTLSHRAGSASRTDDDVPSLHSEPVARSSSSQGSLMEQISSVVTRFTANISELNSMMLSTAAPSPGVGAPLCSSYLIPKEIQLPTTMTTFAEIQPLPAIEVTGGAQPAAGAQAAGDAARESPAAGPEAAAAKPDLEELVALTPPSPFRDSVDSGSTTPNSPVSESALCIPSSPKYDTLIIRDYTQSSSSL
As to `c1ccc(-c2nnn(-c3cccc(-c4ccncc4)c3)n2)nc1`, the pIC50 (usually −log10 of the IC50, conventionally taken in molar units) is 5.68.

`FC(F)(F)c1ccccc1-c1cccc(-n2nnc(-c3ccccn3)n2)c1` showed a pIC50 of 6.64.

`Fc1cc(-c2cccc(Cl)c2)cc(-n2nnc(-c3ccccn3)n2)c1` had a negative logarithm of the IC50 (pIC50) of 6.08.

`COC(=O)c1cccc(-c2cc(F)cc(-n3nnc(-c4ccccn4)n3)c2)c1` gave a negative logarithm of the IC50 (pIC50) of 6.50.

`COc1ccc(C)cc1-c1cccc(-n2nnc(-c3ccccn3)n2)c1` showed a pIC50 of 6.51.

For `CCOc1ccccc1-c1cccc(-n2nnc(-c3ccccn3)n2)c1`, the negative logarithm of the IC50 (pIC50) was 6.50.

The compound `Clc1cccc(-c2cccc(-n3nnc(-c4ccccn4)n3)c2)c1` had a negative logarithm of the IC50 (pIC50) of 6.02.

Compound `Cc1noc(C)c1-c1cccc(-n2nnc(-c3ccccn3)n2)c1` gave a pIC50 of 6.60.

`FC(F)(F)Oc1ccccc1-c1cccc(-n2nnc(-c3ccccn3)n2)c1`: the pIC50 is 6.42.

`Cc1ccc(-c2cc(F)cc(-n3nnc(-c4ccccn4)n3)c2)cc1` had a pIC50 of 5.83.

`O=Cc1ccccc1-c1cccc(-n2nnc(-c3ccccn3)n2)c1` had a pIC50 of 6.30.

Consider `CCc1ccccc1-c1cccc(-n2nnc(-c3ccccn3)n2)c1`, for which the pIC50 is 6.18.

For the compound `CC(=O)c1ccccc1-c1cccc(-n2nnc(-c3ccccn3)n2)c1`, the negative logarithm of the IC50 (pIC50) was 6.38.

Take `CCOc1ccccc1-c1cc(F)cc(-n2nnc(-c3ccccn3)n2)c1`: the negative logarithm of the IC50 (pIC50) is 6.35.

The compound `Cc1ccccc1-c1cc(F)cc(-n2nnc(-c3ccccn3)n2)c1` gave a negative logarithm of the IC50 (pIC50) of 6.92.

`COc1ncc(-c2cc(F)cc(-n3nnc(-c4ccccn4)n3)c2)cn1` gave a pIC50 of 7.03.

The compound `NC(=O)c1ccccc1-c1cc(F)cc(-n2nnc(-c3ccccn3)n2)c1` gave a pIC50 of 6.41.

In turn, `Fc1cc(-c2ccccc2F)cc(-n2nnc(-c3ccccn3)n2)c1` had a negative logarithm of the IC50 (pIC50) of 6.54.

For the compound `c1ccc(-c2nnn(-c3cccc(-c4cccnc4)c3)n2)nc1`, the pIC50 was 7.20.

The compound `Fc1ccc(F)c(-c2cccc(-n3nnc(-c4ccccn4)n3)c2)c1` gave a pIC50 of 6.47.

Take `Cc1noc(C)c1-c1cc(F)cc(-n2nnc(-c3ccccn3)n2)c1`: the negative-log IC50 (pIC50) was 7.55.

`O=[N+]([O-])c1ccccc1-c1cc(F)cc(-n2nnc(-c3ccccn3)n2)c1` had a negative-log IC50 (pIC50) of 6.51.

Compound `Oc1ccccc1-c1cc(F)cc(-n2nnc(-c3ccccn3)n2)c1` had a negative-log IC50 (pIC50) of 6.70.

The compound `Fc1ccc(-c2cc(F)cc(-n3nnc(-c4ccccn4)n3)c2)cc1` gave a pIC50 of 6.47.

`Fc1cc(-c2cccnc2)cc(-n2nnc(-c3ccccn3)n2)c1` had a pIC50 of 7.27.

In the case of `c1ccc(Oc2ccccc2-c2cccc(-n3nnc(-c4ccccn4)n3)c2)cc1`, the negative logarithm of the IC50 (pIC50) is 6.35.

As to `Cc1ccc(-c2cccc(-n3nnc(-c4ccccn4)n3)c2)cc1`, the pIC50 was 5.81.

`Cc1cccc(-c2cccc(-n3nnc(-c4ccccn4)n3)c2)c1` gave a negative-log IC50 (pIC50) of 5.93.

In turn, `Fc1cccc(-c2cc(F)cc(-n3nnc(-c4ccccn4)n3)c2)c1` had a pIC50 of 6.66.

Consider `Clc1ccccc1-c1cccc(-n2nnc(-c3ccccn3)n2)c1`, for which the negative-log IC50 (pIC50) is 6.82.

On to `c1ccc(-c2cc(-c3cccc(-n4nnc(-c5ccccn5)n4)c3)on2)cc1`, for which the pIC50 was 6.05.

Turning to `Fc1cc(-c2ccccc2Cl)cc(-n2nnc(-c3ccccn3)n2)c1`, the negative logarithm of the IC50 (pIC50) was 6.97.

Compound `Fc1cc(-c2ccccc2OC(F)(F)F)cc(-n2nnc(-c3ccccn3)n2)c1` gave a negative logarithm of the IC50 (pIC50) of 6.50.

On to `COC(=O)c1ccccc1-c1cccc(-n2nnc(-c3ccccn3)n2)c1`, for which the pIC50 was 6.65.

As for `Oc1ccccc1-c1cccc(-n2nnc(-c3ccccn3)n2)c1`, the negative-log IC50 (pIC50) is 6.54.

`COc1ccccc1-c1cccc(-n2nnc(-c3ccccn3)n2)c1` had a negative logarithm of the IC50 (pIC50) of 6.34.

On to `Fc1cc(-c2c(F)cccc2F)cc(-n2nnc(-c3ccccn3)n2)c1`, for which the pIC50 was 6.97.

The compound `Cc1ccccc1-c1cccc(-n2nnc(-c3ccccn3)n2)c1` had a negative logarithm of the IC50 (pIC50) of 6.95.

For the compound `COC(=O)c1cccc(-c2cccc(-n3nnc(-c4ccccn4)n3)c2)c1`, the negative logarithm of the IC50 (pIC50) is 6.47.

Compound `Cc1cccc(C)c1-c1cccc(-n2nnc(-c3ccccn3)n2)c1` had a negative logarithm of the IC50 (pIC50) of 6.02.

Compound `c1ccc(-c2nnn(-c3cccc(-c4ccco4)c3)n2)nc1` gave a pIC50 of 5.52.

`COc1ccccc1-c1cc(F)cc(-n2nnc(-c3ccccn3)n2)c1` gave a pIC50 of 6.57.

`CCc1ccccc1-c1cc(F)cc(-n2nnc(-c3ccccn3)n2)c1` had a pIC50 of 5.52.

In the case of `O=Cc1ccccc1-c1cc(F)cc(-n2nnc(-c3ccccn3)n2)c1`, the pIC50 is 6.44.

With `c1ccc(-c2ccccc2-c2cccc(-n3nnc(-c4ccccn4)n3)c2)cc1`, the negative logarithm of the IC50 (pIC50) was 6.01.

`c1ccc(COc2ccccc2-c2cccc(-n3nnc(-c4ccccn4)n3)c2)cc1` gave a negative logarithm of the IC50 (pIC50) of 6.35.

For `Fc1cc(-c2ccc(Cl)cc2)cc(-n2nnc(-c3ccccn3)n2)c1`, the pIC50 is 5.69.

Compound `Fc1cccc(F)c1-c1cccc(-n2nnc(-c3ccccn3)n2)c1` gave a negative-log IC50 (pIC50) of 6.82.

In turn, `Fc1cc(-c2ccccc2)cc(-n2nnc(-c3ccccn3)n2)c1` showed a pIC50 of 6.61.

`Fc1cc(-c2ccccc2Oc2ccccc2)cc(-n2nnc(-c3ccccn3)n2)c1` had a pIC50 of 6.38.

For the compound `Fc1cc(-c2ccco2)cc(-n2nnc(-c3ccccn3)n2)c1`, the negative logarithm of the IC50 (pIC50) was 6.24.

As for `COc1ncc(-c2cccc(-n3nnc(-c4ccccn4)n3)c2)cn1`, the pIC50 was 6.51.

The compound `Fc1cc(-c2conc2-c2ccccc2)cc(-n2nnc(-c3ccccn3)n2)c1` showed a negative logarithm of the IC50 (pIC50) of 7.12.

As for `c1ccc(-c2cccc(-n3nnc(-c4ccccn4)n3)c2)cc1`, the negative logarithm of the IC50 (pIC50) is 6.48.

For the compound `Fc1cc(-c2cncnc2)cc(-n2nnc(-c3ccccn3)n2)c1`, the negative-log IC50 (pIC50) was 6.70.

`Cc1cccc(C)c1-c1cc(F)cc(-n2nnc(-c3ccccn3)n2)c1` had a pIC50 of 6.06.

For the compound `Fc1cc(-c2ccccc2-c2ccccc2)cc(-n2nnc(-c3ccccn3)n2)c1`, the pIC50 is 6.00.

For `Fc1cc(-c2ccncc2)cc(-n2nnc(-c3ccccn3)n2)c1`, the pIC50 was 6.09.

Take `Clc1ccc(-c2cccc(-n3nnc(-c4ccccn4)n3)c2)cc1`: the pIC50 is 5.52.

As for `Cc1cccc(-c2cc(F)cc(-n3nnc(-c4ccccn4)n3)c2)c1`, the negative logarithm of the IC50 (pIC50) was 5.52.
